In patent publication US6737383B1, “Herbicidal oxadiazolidines” (priority 1999, dated 2004):

Experiments:
Alexandergrass = assay: Test D Alexandergrass; format: in vivo, Brachiaria plantaginea; settings: Preemergence, 0 to 100 scale
Excerpt: (§1) Seeds, tubers, or plant parts of Alexandergrass (Brachiaria plantaginea), bermuda-grass (Cynodon dactylon), common pursiane (Portulaca oleracea), common ragweed (Ambrosia elatior), common groundsel (Senecio vulgaris), dallisgrass (Paspalum dilatatum), goosegrass (Eleusine indica), guineagrass (Panicum maximum), itchgrass (Rottboellia exaltata), Johnson grass (Sorghum halepense), large crabgrass (Digitaria sanguinalis), pitted morningglory (Ipomoea lacunosa), purple nutsedge (Cyperus rotundus), sandbur (Cenchrus echinatus), sourgrass (Trichachne insularis), Spanishneedles (Bidens bipinnata), surinam grass (Brachiaria decumbens) and tall mallow (Malva sylvestris) were planted into greenhouse pots of flats containing greenhouse planting medium. Plant species were grown in separate pots or individual compartments. Preemergence applications were made within one day of planting the seed or plant part.
(§2) Test chemicals were formulated in a non-phytotoxic solvent mixture which included a surfactant and applied preemergence to the surface of the pot containing seeds in a sandy loam soil. Untreated control pots and treated pots were placed in the greenhouse for growth and visually evaluated for injury 14 to 21 days after herbicide application. Plant response ratings, summarized in Table C, are based on a 0 to 100 scale where 0 is no injury and 100 is complete control. A dash (−) response means no test result.

common ragweed = assay: Test D common ragweed; format: in vivo, Ambrosia elatior; settings: Preemergence, 0 to 100 scale
Excerpt: as §1, §2

common groundsel = assay: Test D common groundsel; format: in vivo, Senecio vulgaris; settings: Preemergence, 0 to 100 scale
How it was run: (§3)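 Values are visual plant-response ratings (0 no injury, 100 complete control) recorded 14 to 21 days after herbicide treatment, using a non-phytotoxic solvent mixture containing surfactant. Preemergence applications went to the surface of pots holding freshly sown seed in sandy loam.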

dallisgrass = assay: Test D dallisgrass; format: in vivo, Paspalum dilatatum; settings: Preemergence, 0 to 100 scale
Excerpt: as §1, §2

goosegrass = assay: Test D goosegrass; format: in vivo, Eleusine indica; settings: Preemergence, 0 to 100 scale
How it was run: as §3

itchgrass = assay: Test D itchgrass; format: in vivo, Rottboellia exaltata; settings: Preemergence, 0 to 100 scale
How it was run: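 Scoring used a 0–100 visual injury scale, with 0 meaning no effect and 100 complete control, assessed 14–21 days after application alongside untreated pots. Preemergence treatments went onto sandy loam surfaces of separately potted seeds within a day of sowing.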

Johnson grass = assay: Test D Johnson grass; format: in vivo, Sorghum halepense; settings: Preemergence, 0 to 100 scale
Excerpt: as §1, §2

large crabgrass = assay: Test D large crabgrass; format: in vivo, Digitaria sanguinalis; settings: Preemergence, 0 to 100 scale
Excerpt: as §1, §2

purple nutsedge = assay: Test D purple nutsedge; format: in vivo, Cyperus rotundus; settings: Preemergence, 0 to 100 scale
Excerpt: as §1, §2

sandbur = assay: Test D sandbur; format: in vivo, Cenchrus echinatus; settings: Preemergence, 0 to 100 scale
How it was run: as §3

Spanishneedles = assay: Test D Spanishneedles; format: in vivo, Bidens bipinnata; settings: Preemergence, 0 to 100 scale
Excerpt: as §1, §2

surinam grass = assay: Test D surinam grass; format: in vivo, Brachiaria decumbens; settings: Preemergence, 0 to 100 scale
Excerpt: as §1, §2

Green foxtail [1] = assay: Test D green foxtail; format: in vivo
How it was run: as §3

Green foxtail [2] = assay: Test D green foxtail; format: in vivo; settings: Preemergence, 0 to 100 scale
Excerpt: as §1, §2

[3] = Rate 64 g/ha, 0 no injury, 100 complete control
[4] = Rate 64 g/ha, Preemergence; 0 to 100 scale, 0 no injury, 100 complete control
[5] = Rate 16 g/ha, 0 no injury, 100 complete control
[6] = Rate 32 g/ha, 0 no injury, 100 complete control
[7] = Rate 125 g/ha, 0 no injury, 100 complete control
[8] = Preemergence; Rate 16 g/ha; 0 to 100 scale, 0 no injury, 100 complete control
[9] = Preemergence; Rate 32 g/ha; 0 to 100 scale, 0 no injury, 100 complete control
[10] = Rate 16 g/ha; Preemergence; 0 to 100 scale, 0 no injury, 100 complete control
[11] = Rate 32 g/ha; Preemergence; 0 to 100 scale, 0 no injury, 100 complete control
[12] = Rate 125 g/ha, Preemergence; 0 to 100 scale, 0 no injury, 100 complete control

CCCn1c(=O)on(C(=O)N(c2ccc(F)cc2F)C(C)C)c1=O [Compound 130]
Plant response rating, Alexandergrass (Alexandergrass; [3]): 98
Plant response rating, C. ragweed (common ragweed; [3]): 30
Plant response rating, Com. groundsel (common groundsel; [3]): 0
Plant response rating, Dallisgrass (dallisgrass; [3]): 100
Plant response rating, Goosegrass (goosegrass; [3]): 100
Plant response rating, Itchgrass (itchgrass; [3]): 80
Plant response rating Johnsongrass (Johnson grass; [3]): 65
Plant response rating Large crabgrass (large crabgrass; [3]): 100
Purple nutsedge plant response rating (purple nutsedge; [3]): 0
Sandbur plant response rating (sandbur; [3]): 100
Spanishneedles plant response rating (Spanishneedles; [3]): 60
Surinam grass plant response rating (surinam grass; [3]): 80
Green foxtail plant response rating (Green foxtail [1]; [4]): 100
Plant response rating, Green foxtail (Green foxtail [1]; [4]): 100

CC(C)N(C(=O)n1oc(=O)n(C2CCCCC2)c1=O)c1ccc(F)cc1F [Compound 115]
Plant response rating, Alexandergrass (Alexandergrass; [5]): 0
Plant response rating, Alexandergrass (Alexandergrass; [6]): 20
Plant response rating, Alexandergrass (Alexandergrass; [3]): 50
Plant response rating, Alexandergrass (Alexandergrass; [7]): 75
Plant response rating, Alexandergrass (Alexandergrass; Rate 250 g/ha): 85
Plant response rating, Alexandergrass (Alexandergrass; Rate 500 g/ha): 100
Plant response rating, C. ragweed (common ragweed; [5]): 0
Plant response rating, C. ragweed (common ragweed; [6]): 0
Plant response rating, C. ragweed (common ragweed; [3]): 0
Plant response rating, C. ragweed (common ragweed; [7]): 10
Plant response rating, C. ragweed (common ragweed; Rate 250 g/ha): 20
Plant response rating, C. ragweed (common ragweed; Rate 500 g/ha): 20
Plant response rating, Com. groundsel (common groundsel; [5]): 0
Plant response rating, Com. groundsel (common groundsel; [6]): 0
Plant response rating, Com. groundsel (common groundsel; [3]): 10
Plant response rating, Com. groundsel (common groundsel; [7]): 10
Plant response rating, Com. groundsel (common groundsel; Rate 250 g/ha): 10
Plant response rating, Com. groundsel (common groundsel; Rate 500 g/ha): 98
Plant response rating, Dallisgrass (dallisgrass; [5]): 0
Plant response rating, Dallisgrass (dallisgrass; [6]): 75
Plant response rating, Dallisgrass (dallisgrass; [3]): 75
Plant response rating, Dallisgrass (dallisgrass; [7]): 98
Plant response rating, Dallisgrass (dallisgrass; Rate 250 g/ha): 98
Plant response rating, Dallisgrass (dallisgrass; Rate 500 g/ha): 100
Plant response rating, Goosegrass (goosegrass; [5]): 20
Plant response rating, Goosegrass (goosegrass; [6]): 85
Plant response rating, Goosegrass (goosegrass; [3]): 90
Plant response rating, Goosegrass (goosegrass; [7]): 98
Plant response rating, Goosegrass (goosegrass; Rate 250 g/ha): 100
Plant response rating, Goosegrass (goosegrass; Rate 500 g/ha): 100
Plant response rating, Itchgrass (itchgrass; [5]): 40
Plant response rating, Itchgrass (itchgrass; [6]): 40
Plant response rating, Itchgrass (itchgrass; [3]): 40
Plant response rating, Itchgrass (itchgrass; [7]): 50
Plant response rating, Itchgrass (itchgrass; Rate 250 g/ha): 50
Plant response rating, Itchgrass (itchgrass; Rate 500 g/ha): 50
Plant response rating Johnsongrass (Johnson grass; [5]): 0
Plant response rating Johnsongrass (Johnson grass; [6]): 40
Plant response rating Johnsongrass (Johnson grass; [3]): 40
Plant response rating Johnsongrass (Johnson grass; [7]): 60
Plant response rating Johnsongrass (Johnson grass; Rate 250 g/ha): 75
Plant response rating Johnsongrass (Johnson grass; Rate 500 g/ha): 90
Plant response rating Large crabgrass (large crabgrass; [5]): 75
Plant response rating Large crabgrass (large crabgrass; [6]): 75
Plant response rating Large crabgrass (large crabgrass; [3]): 85
Plant response rating Large crabgrass (large crabgrass; [7]): 100
Plant response rating Large crabgrass (large crabgrass; Rate 250 g/ha): 100
Plant response rating Large crabgrass (large crabgrass; Rate 500 g/ha): 100
Plant response rating, Purple nutsedge (purple nutsedge; [5]): 0
Plant response rating, Purple nutsedge (purple nutsedge; [6]): 0
Purple nutsedge plant response rating (purple nutsedge; [3]): 0
Purple nutsedge plant response rating (purple nutsedge; [7]): 0
Plant response rating, Purple nutsedge (purple nutsedge; Rate 250 g/ha): 0
Plant response rating, Purple nutsedge (purple nutsedge; Rate 500 g/ha): 0
Plant response rating, Sandbur (sandbur; [5]): 0
Plant response rating, Sandbur (sandbur; [6]): 0
Sandbur plant response rating (sandbur; [3]): 0
Sandbur plant response rating (sandbur; [7]): 40
Plant response rating, Sandbur (sandbur; Rate 250 g/ha): 50
Plant response rating, Sandbur (sandbur; Rate 500 g/ha): 100
Plant response rating, Spanishneedles (Spanishneedles; [5]): 0
Plant response rating, Spanishneedles (Spanishneedles; [6]): 0
Spanishneedles plant response rating (Spanishneedles; [3]): 0
Spanishneedles plant response rating (Spanishneedles; [7]): 0
Plant response rating, Spanishneedles (Spanishneedles; Rate 500 g/ha): 10
Plant response rating, Surinam grass (surinam grass; [5]): 0
Plant response rating, Surinam grass (surinam grass; [6]): 20
Surinam grass plant response rating (surinam grass; [3]): 65
Surinam grass plant response rating (surinam grass; [7]): 75
Plant response rating, Surinam grass (surinam grass; Rate 250 g/ha): 75
Plant response rating, Surinam grass (surinam grass; Rate 500 g/ha): 85
Plant response rating, Green foxtail (Green foxtail [2]; Rate 250 g/ha): 100
Plant response rating, Green foxtail (Green foxtail [2]; Rate 500 g/ha): 100
Plant response rating, Green foxtail (Green foxtail [1]; [8]): 0
Plant response rating, Green foxtail (Green foxtail [1]; [9]): 70
Plant response rating, Green foxtail (Green foxtail [1]; [10]): 0
Plant response rating, Green foxtail (Green foxtail [1]; [11]): 75
Green foxtail plant response rating (Green foxtail [1]; [4]): 85
Plant response rating, Green foxtail (Green foxtail [1]; [4]): 85
Green foxtail plant response rating (Green foxtail [1]; [12]): 100
Plant response rating, Green foxtail (Green foxtail [1]; [12]): 100
Plant response rating, Green foxtail (Green foxtail [1]; Rate 250 g/ha; Preemergence; 0 to 100 scale): 100
Plant response rating, Green foxtail (Green foxtail [1]; Rate 500 g/ha, Preemergence; 0 to 100 scale): 100

Cc1cccc(C)c1-n1c(=O)on(C(=O)N(c2ccc(F)cc2)C(C)C)c1=O [Compound 18]
Plant response rating, Alexandergrass (Alexandergrass; [5]): 0
Plant response rating, Alexandergrass (Alexandergrass; [6]): 0
Plant response rating, Alexandergrass (Alexandergrass; [3]): 0
Plant response rating, Alexandergrass (Alexandergrass; [7]): 30
Plant response rating, C. ragweed (common ragweed; [5]): 0
Plant response rating, C. ragweed (common ragweed; [6]): 0
Plant response rating, C. ragweed (common ragweed; [3]): 0
Plant response rating, C. ragweed (common ragweed; [7]): 0
Plant response rating, Com. groundsel (common groundsel; [5]): 0
Plant response rating, Com. groundsel (common groundsel; [6]): 0
Plant response rating, Com. groundsel (common groundsel; [3]): 0
Plant response rating, Com. groundsel (common groundsel; [7]): 0
Plant response rating, Dallisgrass (dallisgrass; [5]): 0
Plant response rating, Dallisgrass (dallisgrass; [6]): 0
Plant response rating, Dallisgrass (dallisgrass; [3]): 85
Plant response rating, Dallisgrass (dallisgrass; [7]): 100
Plant response rating, Goosegrass (goosegrass; [5]): 0
Plant response rating, Goosegrass (goosegrass; [6]): 0
Plant response rating, Goosegrass (goosegrass; [3]): 85
Plant response rating, Goosegrass (goosegrass; [7]): 85
Plant response rating, Itchgrass (itchgrass; [5]): 0
Plant response rating, Itchgrass (itchgrass; [6]): 0
Plant response rating, Itchgrass (itchgrass; [3]): 0
Plant response rating, Itchgrass (itchgrass; [7]): 0
Plant response rating Johnsongrass (Johnson grass; [5]): 0
Plant response rating Johnsongrass (Johnson grass; [6]): 0
Plant response rating Johnsongrass (Johnson grass; [3]): 0
Plant response rating Johnsongrass (Johnson grass; [7]): 0
Plant response rating Large crabgrass (large crabgrass; [5]): 0
Plant response rating Large crabgrass (large crabgrass; [6]): 0
Plant response rating Large crabgrass (large crabgrass; [3]): 98
Plant response rating Large crabgrass (large crabgrass; [7]): 100
Plant response rating, Purple nutsedge (purple nutsedge; [5]): 0
Plant response rating, Purple nutsedge (purple nutsedge; [6]): 0
Purple nutsedge plant response rating (purple nutsedge; [3]): 0
Purple nutsedge plant response rating (purple nutsedge; [7]): 0
Plant response rating, Sandbur (sandbur; [5]): 0
Plant response rating, Sandbur (sandbur; [6]): 0
Sandbur plant response rating (sandbur; [3]): 0
Sandbur plant response rating (sandbur; [7]): 0
Plant response rating, Spanishneedles (Spanishneedles; [5]): 0
Plant response rating, Spanishneedles (Spanishneedles; [6]): 0
Spanishneedles plant response rating (Spanishneedles; [3]): 0
Spanishneedles plant response rating (Spanishneedles; [7]): 0
Plant response rating, Surinam grass (surinam grass; [5]): 0
Plant response rating, Surinam grass (surinam grass; [6]): 0
Surinam grass plant response rating (surinam grass; [3]): 0
Surinam grass plant response rating (surinam grass; [7]): 20
Plant response rating, Green foxtail (Green foxtail [1]; [8]): 0
Plant response rating, Green foxtail (Green foxtail [1]; [9]): 0
Plant response rating, Green foxtail (Green foxtail [1]; [10]): 0
Plant response rating, Green foxtail (Green foxtail [1]; [11]): 0
Green foxtail plant response rating (Green foxtail [1]; [4]): 85
Plant response rating, Green foxtail (Green foxtail [1]; [4]): 85
Green foxtail plant response rating (Green foxtail [1]; [12]): 85
Plant response rating, Green foxtail (Green foxtail [1]; [12]): 85
